Source: patent US20260201008A1, “SECRETIN-DERIVED GLP1R SELECTIVE AGONISTS” (GUBRA A/S, priority 2023, published 2026)
Where two headings read alike, the source gives them in different places. Numbered stars: 1 amine (or outer) side, 2 acyl side, 3 side chain; on linkers, the order of the positions; unused ones are H or OH. Square brackets hold non-standard residues; d marks the D form. Side chains are listed from the residue outwards. Peptide text beside a SMILES is read from it. * marks the point of attachment. C20 diacid = O=C(O)CCCCCCCCCCCCCCCCCCC(=O)*; γGlu = O=C(O)[C@H](CCC(=O)[*:2])N[*:1]; AEEA = NCCOCCOCC(=O)O; Aib = CC(C)(N)C(=O)O

Legend:
[1] = Fibril formation of crude library peptides (Thioflavin T); format: physicochemical; parameters: key: average ThT fluorescence emission at 480 nm (ex 450 nm), raw units; conditions: Physical stability of peptides
Procedure, shortened: (§1)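 Crude peptides at 267 μM in 50 mM sodium acetate pH 4.0 or 50 mM sodium phosphate pH 7.0, pre-incubated 1-2 h at room temperature, then 4 μM final ThT added. Turbidity read first as A600. ThT fluorescence (ex 450/em 480 nm) read every 10 min for 72 h at 40° C, with 5 min shaking before each read; fibril formation = average emission.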

[2] = Turbidity of crude library peptides (absorbance at 600 nm); format: physicochemical; conditions: Physical stability of peptides
Procedure, shortened: as §1

SCTR = SCTR (Homo sapiens, UniProt P47872); assay: hSCTR potency, cAMP accumulation in CHO-K1 cells stably overexpressing hSCTR; format: cell-based; parameters: alternatively Euroscreen ES-712-AF; FAST-0161L; host or cells: CHO-K1; conditions: cAMP accumulation, CHO-K1 cells overexpressing hSCTR
Procedure, shortened: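 Read-out is TR-FRET cAMP detection, recorded one hour after reagent addition, in CHO-K1 cells stably overexpressing hSCTR. Cells in DPBS containing 0.05% casein and 0.5 mM IBMX are exposed to graded peptide doses for 30 min at room temperature, with human secretin as reference agonist.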

GLP1R = GLP1R (Homo sapiens, UniProt P43220); assay: hGLP1R potency, cAMP accumulation in CHO-K1 cells stably overexpressing hGLP1R; format: cell-based; parameters: host or cells: CHO-K1; conditions: for Selectivity: SCTR EC50/GLP1R EC50 ratio; for EC50: cAMP accumulation, CHO-K1 cells overexpressing hGLP1R; for SCTR EC50/GLP1R EC50 ratio: selectivity for hGLP1R over hSCTR, cAMP accumulation in CHO-K1 cells
Procedure, shortened: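 Thawed cells go straight into buffer containing 0.5 mM IBMX and 0.05% casein, get graded compound doses for 30 min at room temperature, and are then assayed for accumulated cAMP by time-resolved FRET. Human GLP-1(7-36) serves as positive control; EC50 is derived by nonlinear regression.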

[3] = read-out: pEC50 hSCTR (converted)
[4] = read-out: pEC50 hGLPR1 (converted)
[5] = read-out: hSCTR pEC50 (converted)
[6] = read-out: hGLP1R pEC50 (converted)

SCTR, sequence (P47872 23-440): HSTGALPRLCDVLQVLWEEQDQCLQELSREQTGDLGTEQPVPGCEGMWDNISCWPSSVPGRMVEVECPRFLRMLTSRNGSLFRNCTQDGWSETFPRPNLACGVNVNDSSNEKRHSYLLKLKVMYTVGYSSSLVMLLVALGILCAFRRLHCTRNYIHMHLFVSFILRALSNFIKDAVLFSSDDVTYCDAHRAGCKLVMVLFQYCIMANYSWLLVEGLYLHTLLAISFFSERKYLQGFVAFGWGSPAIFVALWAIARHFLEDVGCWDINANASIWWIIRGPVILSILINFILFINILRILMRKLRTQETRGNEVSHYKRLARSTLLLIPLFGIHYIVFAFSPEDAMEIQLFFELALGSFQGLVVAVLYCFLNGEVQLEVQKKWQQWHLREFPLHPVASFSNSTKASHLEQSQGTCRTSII
GLP1R, sequence (P43220 24-463): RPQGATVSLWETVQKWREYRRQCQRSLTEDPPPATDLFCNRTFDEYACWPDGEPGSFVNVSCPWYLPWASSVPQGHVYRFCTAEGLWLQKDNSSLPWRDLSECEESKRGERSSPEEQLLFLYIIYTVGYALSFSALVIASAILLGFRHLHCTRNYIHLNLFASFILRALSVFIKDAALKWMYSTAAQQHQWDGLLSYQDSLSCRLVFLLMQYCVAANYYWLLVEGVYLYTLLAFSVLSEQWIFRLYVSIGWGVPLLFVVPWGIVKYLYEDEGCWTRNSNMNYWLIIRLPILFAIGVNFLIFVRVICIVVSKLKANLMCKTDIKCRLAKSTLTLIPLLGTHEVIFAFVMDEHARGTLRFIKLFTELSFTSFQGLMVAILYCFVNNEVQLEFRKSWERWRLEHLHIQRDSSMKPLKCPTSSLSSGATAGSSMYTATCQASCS

Row | Fibril formation [1] | Turbidity (pH 7) [2] | EC50 (SCTR; [3]) | Selectivity (GLP1R) | EC50 (GLP1R; [4]) | EC50 (SCTR; [5]) | EC50 (GLP1R; [6]) | SCTR EC50/GLP1R EC50 ratio (GLP1R) | Compound
1 | 8475 | 0.09 | 2000 nM | 63009 | 0.0316 nM | – | – | – | CC(C)C[C@H](NC(=O)[C@H](Cc1ccccc1)NC(=O)[C@H](CCCNC(=N)N)NC(=O)[C@H](CCC(N)=O)NC(=O)[C@H](CCC(=O)O)NC(=O)[C@H](C)NC(=O)[C@H](C)NC(=O)[C@H](CCC(=O)O)NC(=O)[C@H](CCC(=O)O)NC(=O)[C@H](CCCCNC(=O)COCCOCCNC(=O)COCCOCCNC(=O)CC[C@H](NC(=O)CCCCCCCCCCCCCCCCCCC(=O)O)C(=O)O)NC(=O)[C@H](CC(C)C)NC(=O)[C@H](CCC(=O)O)NC(=O)[C@H](CO)NC(=O)[C@@H](NC(=O)[C@H](CC(=O)O)NC(=O)[C@H](CO)NC(=O)[C@@H](NC(=O)[C@H](Cc1ccccc1)NC(=O)[C@@H](NC(=O)CNC(=O)[C@H](CCC(=O)O)NC(=O)C(C)(C)NC(=O)[C@@H](N)Cc1c[nH]cn1)[C@@H](C)O)[C@@H](C)O)C(C)C)C(=O)N[C@@H](CCC(=O)O)C(=O)N[C@@H](Cc1c[nH]cn1)C(=O)N[C@@H](CC(C)C)C(=O)N[C@H](C(N)=O)C(C)C [compound 51] (H-H[Aib]EGTFTSDVSELK([AEEA-AEEA-γGlu-C20 diacid])EEAAEQRFLEHLV-NH2)
2 | 5733 | 0.08 | – | – | – | 794 nM | 0.01 nM | 88736 | CC(C)C[C@H](NC(=O)[C@H](Cc1ccccc1)NC(=O)[C@H](CCCNC(=N)N)NC(=O)[C@H](CCC(N)=O)NC(=O)[C@H](CC(C)C)NC(=O)C(C)(C)NC(=O)[C@H](C)NC(=O)[C@H](CCC(=O)O)NC(=O)[C@H](CCC(=O)O)NC(=O)[C@H](Cc1ccc(O)cc1)NC(=O)[C@H](CC(C)C)NC(=O)[C@H](Cc1ccc(O)cc1)NC(=O)[C@H](CO)NC(=O)[C@@H](NC(=O)[C@H](CC(=O)O)NC(=O)[C@H](CO)NC(=O)[C@@H](NC(=O)[C@H](Cc1ccccc1)NC(=O)[C@@H](NC(=O)CNC(=O)[C@H](CCC(=O)O)NC(=O)C(C)(C)NC(=O)[C@@H](N)Cc1c[nH]cn1)[C@@H](C)O)[C@@H](C)O)C(C)C)C(=O)N[C@@H](CCC(=O)O)C(=O)N[C@@H](CCCCNC(=O)COCCOCCNC(=O)COCCOCCNC(=O)CC[C@H](NC(=O)CCCCCCCCCCCCCCCCCCC(=O)O)C(=O)O)C(=O)N[C@@H](CC(C)C)C(=O)N[C@H](C(N)=O)C(C)C [compound 143] (H-H[Aib]EGTFTSDVSYLYEEA[Aib]LQRFLEK([AEEA-AEEA-γGlu-C20 diacid])LV-NH2)
3 | 253106 | 0.40 | – | – | – | 158 nM | 0.0501 nM | 2754 | CC[C@H](C)[C@H](NC(=O)[C@H](Cc1ccccc1)NC(=O)[C@H](CCCNC(=N)N)NC(=O)[C@H](CCC(N)=O)NC(=O)[C@H](CC(C)C)NC(=O)[C@H](C)NC(=O)[C@H](C)NC(=O)CNC(=O)[C@H](CCC(=O)O)NC(=O)[C@H](CC(C)C)NC(=O)[C@H](CC(C)C)NC(=O)CNC(=O)[C@H](CO)NC(=O)[C@@H](NC(=O)[C@H](CC(=O)O)NC(=O)[C@H](CO)NC(=O)[C@@H](NC(=O)[C@H](Cc1ccccc1)NC(=O)[C@@H](NC(=O)CNC(=O)[C@H](CCC(=O)O)NC(=O)C(C)(C)NC(=O)[C@@H](N)Cc1c[nH]cn1)[C@@H](C)O)[C@@H](C)O)C(C)C)C(=O)N[C@@H](CCC(N)=O)C(=O)N[C@@H](Cc1c[nH]c2ccccc12)C(=O)N[C@@H](CC(C)C)C(=O)N[C@H](C(N)=O)C(C)C [compound 182] (H-H[Aib]EGTFTSDVSGLLEGAALQRFIQWLV-NH2)
4 | 7462 | 0.08 | 158 nM | 8143 | 0.02 nM | – | – | – | CC(C)C[C@H](NC(=O)[C@H](Cc1ccccc1)NC(=O)[C@H](CCCNC(=N)N)NC(=O)[C@H](CCC(N)=O)NC(=O)[C@H](C)NC(=O)[C@H](C)NC(=O)[C@H](C)NC(=O)[C@@H](NC(=O)[C@H](CCC(=O)O)NC(=O)[C@H](CCCCNC(=O)COCCOCCNC(=O)COCCOCCNC(=O)CC[C@H](NC(=O)CCCCCCCCCCCCCCCCCCC(=O)O)C(=O)O)NC(=O)[C@H](CC(C)C)NC(=O)[C@H](CCCNC(=N)N)NC(=O)[C@H](CO)NC(=O)[C@@H](NC(=O)[C@H](CC(=O)O)NC(=O)[C@H](CO)NC(=O)[C@@H](NC(=O)[C@H](Cc1ccccc1)NC(=O)[C@@H](NC(=O)CNC(=O)[C@H](CCC(=O)O)NC(=O)C(C)(C)NC(=O)[C@@H](N)Cc1c[nH]cn1)[C@@H](C)O)[C@@H](C)O)C(C)C)[C@@H](C)O)C(=O)N[C@@H](CCC(=O)O)C(=O)N[C@@H](Cc1c[nH]cn1)C(=O)N[C@@H](CC(C)C)C(=O)N[C@H](C(N)=O)C(C)C [compound 23] (H-H[Aib]EGTFTSDVSRLK([AEEA-AEEA-γGlu-C20 diacid])ETAAAQRFLEHLV-NH2)
5 | 3353 | 0.08 | – | – | – | 12.6 nM | 0.0126 nM | 857 | CC(C)C[C@H](NC(=O)[C@H](Cc1ccccc1)NC(=O)[C@H](CCCNC(=N)N)NC(=O)[C@H](CCC(N)=O)NC(=O)[C@H](CC(C)C)NC(=O)C(C)(C)NC(=O)[C@H](C)NC(=O)[C@H](CCC(=O)O)NC(=O)[C@H](CCC(=O)O)NC(=O)[C@H](CCCCNC(=O)COCCOCCNC(=O)COCCOCCNC(=O)CC[C@H](NC(=O)CCCCCCCCCCCCCCCCCCC(=O)O)C(=O)O)NC(=O)[C@H](CC(C)C)NC(=O)[C@H](CC(N)=O)NC(=O)[C@H](CO)NC(=O)[C@@H](NC(=O)[C@H](CC(=O)O)NC(=O)[C@H](CO)NC(=O)[C@@H](NC(=O)[C@H](Cc1ccccc1)NC(=O)[C@@H](NC(=O)CNC(=O)[C@H](CCC(=O)O)NC(=O)C(C)(C)NC(=O)[C@@H](N)Cc1c[nH]cn1)[C@@H](C)O)[C@@H](C)O)C(C)C)C(=O)N[C@@H](CCC(=O)O)C(=O)N[C@@H](Cc1c[nH]cn1)C(=O)N[C@@H](CC(C)C)C(=O)N[C@H](C(N)=O)C(C)C [compound 136] (H-H[Aib]EGTFTSDVSNLK([AEEA-AEEA-γGlu-C20 diacid])EEA[Aib]LQRFLEHLV-NH2)
6 | 6999 | 0.08 | 794 nM | 33512 | 0.02 nM | – | – | – | CC(C)C[C@H](NC(=O)[C@H](CCC(=O)O)NC(=O)[C@H](CCCCNC(=O)COCCOCCNC(=O)COCCOCCNC(=O)CC[C@H](NC(=O)CCCCCCCCCCCCCCCCCCC(=O)O)C(=O)O)NC(=O)[C@H](CC(C)C)NC(=O)[C@H](CCC(=O)O)NC(=O)[C@H](CO)NC(=O)[C@@H](NC(=O)[C@H](CC(=O)O)NC(=O)[C@H](CO)NC(=O)[C@@H](NC(=O)[C@H](Cc1ccccc1)NC(=O)[C@@H](NC(=O)CNC(=O)[C@H](CCC(=O)O)NC(=O)C(C)(C)NC(=O)[C@@H](N)Cc1c[nH]cn1)[C@@H](C)O)[C@@H](C)O)C(C)C)C(=O)N[C@@H](C)C(=O)N[C@@H](C)C(=O)N[C@H](C(=O)N[C@@H](CCC(N)=O)C(=O)N[C@@H](CCCNC(=N)N)C(=O)N[C@@H](Cc1ccccc1)C(=O)N[C@@H](CC(C)C)C(=O)N[C@@H](CCC(=O)O)C(=O)N[C@@H](Cc1c[nH]cn1)C(=O)N[C@@H](CC(C)C)C(=O)N[C@H](C(N)=O)C(C)C)[C@@H](C)O [compound 80] (H-H[Aib]EGTFTSDVSELK([AEEA-AEEA-γGlu-C20 diacid])ELAATQRFLEHLV-NH2)
7 | 20479 | 0.08 | 10000 nM | 122180 | 0.0794 nM | – | – | – | CC(C)C[C@H](NC(=O)[C@H](Cc1ccccc1)NC(=O)[C@H](CCCNC(=N)N)NC(=O)[C@H](CCC(N)=O)NC(=O)[C@H](CCC(N)=O)NC(=O)[C@H](C)NC(=O)[C@H](C)NC(=O)[C@H](Cc1ccccc1)NC(=O)[C@H](CCC(=O)O)NC(=O)[C@H](CCCCNC(=O)COCCOCCNC(=O)COCCOCCNC(=O)CC[C@H](NC(=O)CCCCCCCCCCCCCCCCCCC(=O)O)C(=O)O)NC(=O)[C@H](CC(C)C)NC(=O)[C@H](Cc1ccc(O)cc1)NC(=O)[C@H](CO)NC(=O)[C@@H](NC(=O)[C@H](CC(=O)O)NC(=O)[C@H](CO)NC(=O)[C@@H](NC(=O)[C@H](Cc1ccccc1)NC(=O)[C@@H](NC(=O)CNC(=O)[C@H](CCC(=O)O)NC(=O)C(C)(C)NC(=O)[C@@H](N)Cc1c[nH]cn1)[C@@H](C)O)[C@@H](C)O)C(C)C)C(=O)N[C@@H](CCC(=O)O)C(=O)N[C@@H](Cc1c[nH]cn1)C(=O)N[C@@H](CC(C)C)C(=O)N[C@H](C(N)=O)C(C)C [compound 76] (H-H[Aib]EGTFTSDVSYLK([AEEA-AEEA-γGlu-C20 diacid])EFAAQQRFLEHLV-NH2)
